In patent US11603372B2, “Compounds and therapeutic uses thereof” (VioGen Biosciences, LLC, priority 2017, dated 2023):
pKd: −log10 of the molar value.

Each compound was assayed against PIKfyve (Homo sapiens (Human), UniProt Q9Y2I7) (assay: Kinase binding assay (kinase-tagged T7 phage, affinity beads, qPCR readout), Kd determination). Conditions: 11-point 3-fold compound dilution series.
Chain of PIKfyve (Q9Y2I7 whole entry): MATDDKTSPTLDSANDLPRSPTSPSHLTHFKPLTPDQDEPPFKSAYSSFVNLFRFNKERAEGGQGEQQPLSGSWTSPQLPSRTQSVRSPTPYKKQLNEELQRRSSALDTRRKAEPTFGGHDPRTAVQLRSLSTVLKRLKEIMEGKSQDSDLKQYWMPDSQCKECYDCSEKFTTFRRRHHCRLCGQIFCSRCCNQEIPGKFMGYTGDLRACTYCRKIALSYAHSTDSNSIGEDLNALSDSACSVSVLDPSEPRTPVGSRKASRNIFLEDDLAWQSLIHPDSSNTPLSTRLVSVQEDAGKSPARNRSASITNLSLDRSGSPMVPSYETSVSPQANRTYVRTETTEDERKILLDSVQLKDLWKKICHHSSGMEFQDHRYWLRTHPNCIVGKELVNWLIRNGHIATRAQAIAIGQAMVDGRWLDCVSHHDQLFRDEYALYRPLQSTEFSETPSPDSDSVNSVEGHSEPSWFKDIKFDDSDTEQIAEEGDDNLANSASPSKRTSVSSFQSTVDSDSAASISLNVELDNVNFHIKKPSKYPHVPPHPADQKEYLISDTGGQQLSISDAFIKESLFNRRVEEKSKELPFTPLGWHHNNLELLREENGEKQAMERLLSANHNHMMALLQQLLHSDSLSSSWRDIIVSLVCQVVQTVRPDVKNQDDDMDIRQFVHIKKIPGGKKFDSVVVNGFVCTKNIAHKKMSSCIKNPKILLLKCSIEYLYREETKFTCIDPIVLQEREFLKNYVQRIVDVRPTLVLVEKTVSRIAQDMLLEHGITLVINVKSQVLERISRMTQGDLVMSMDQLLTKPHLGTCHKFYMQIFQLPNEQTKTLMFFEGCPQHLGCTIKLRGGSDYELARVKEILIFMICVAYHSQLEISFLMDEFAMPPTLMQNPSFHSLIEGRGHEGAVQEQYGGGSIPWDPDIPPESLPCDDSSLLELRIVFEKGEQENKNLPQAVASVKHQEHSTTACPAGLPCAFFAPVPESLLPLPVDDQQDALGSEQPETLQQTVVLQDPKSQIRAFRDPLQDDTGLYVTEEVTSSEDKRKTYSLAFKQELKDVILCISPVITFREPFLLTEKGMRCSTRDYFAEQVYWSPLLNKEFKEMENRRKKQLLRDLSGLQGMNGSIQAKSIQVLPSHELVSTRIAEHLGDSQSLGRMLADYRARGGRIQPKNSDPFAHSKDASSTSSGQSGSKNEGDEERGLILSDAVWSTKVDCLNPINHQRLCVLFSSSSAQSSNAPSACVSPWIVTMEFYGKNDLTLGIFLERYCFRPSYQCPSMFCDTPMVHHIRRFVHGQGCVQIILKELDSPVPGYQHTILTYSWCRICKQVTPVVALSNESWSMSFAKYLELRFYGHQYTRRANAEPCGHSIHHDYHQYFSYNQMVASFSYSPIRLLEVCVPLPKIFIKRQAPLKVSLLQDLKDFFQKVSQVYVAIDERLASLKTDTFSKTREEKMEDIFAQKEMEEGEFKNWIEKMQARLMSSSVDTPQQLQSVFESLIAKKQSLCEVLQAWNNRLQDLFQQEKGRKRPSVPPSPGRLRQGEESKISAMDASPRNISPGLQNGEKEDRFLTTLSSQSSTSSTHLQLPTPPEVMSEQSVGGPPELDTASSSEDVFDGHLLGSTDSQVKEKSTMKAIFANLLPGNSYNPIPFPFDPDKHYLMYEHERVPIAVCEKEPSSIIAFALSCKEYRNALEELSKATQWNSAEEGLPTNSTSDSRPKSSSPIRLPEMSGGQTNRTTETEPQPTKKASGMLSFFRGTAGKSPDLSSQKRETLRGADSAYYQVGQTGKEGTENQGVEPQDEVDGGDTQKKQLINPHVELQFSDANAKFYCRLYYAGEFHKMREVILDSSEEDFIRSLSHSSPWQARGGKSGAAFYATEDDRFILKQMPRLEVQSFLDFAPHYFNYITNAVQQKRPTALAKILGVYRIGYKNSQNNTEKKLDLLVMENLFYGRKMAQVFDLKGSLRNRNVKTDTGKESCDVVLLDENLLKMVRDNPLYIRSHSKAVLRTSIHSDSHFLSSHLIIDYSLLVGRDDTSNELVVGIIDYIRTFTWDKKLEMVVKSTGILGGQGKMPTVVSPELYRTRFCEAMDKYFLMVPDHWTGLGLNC
Method: Kinase assays. For most assays, kinase-tagged T7 phage strains were prepared in an E. coli host derived from the BL21 strain. E. coli were grown to log-phase and infected with T7 phage and incubated with shaking at 32° C. until lysis. The lysates were centrifuged and filtered to remove cell debris. The remaining kinases were produced in HEK-293 cells and subsequently tagged with DNA for qPCR detection. Streptavidin-coated magnetic beads were treated with biotinylated small molecule ligands for 30 minutes at room temperature to generate affinity resins for kinase assays. The liganded beads were blocked with excess biotin and washed with blocking buffer (SeaBlock (Pierce), 1% BSA, 0.05% Tween 20, 1 mM DTT) to remove unbound ligand and to reduce non-specific binding. Binding reactions were assembled by combining kinases, liganded affinity beads, and test compounds in 1× binding buffer (20% SeaBlock, 0.17×PBS, 0.05% Tween 20, 6 mM DTT). Test compounds were prepared as 111× stocks in 100% DMSO. Kds were determined using an 11-point 3-fold compound dilution series with three DMSO control points. All compounds for Kd measurements are distributed by acoustic transfer (non-contact dispensing) in 100% DMSO. The compounds were then diluted directly into the assays such that the final concentration of DMSO was 0.9%. All reactions performed in polypropylene 384-well plate. Each was a final volume of 0.02 ml. The assay plates were incubated at room temperature with shaking for 1 hour and the affinity beads were washed with wash buffer (1×PBS, 0.05% Tween 20). The beads were then re-suspended in elution buffer (1×PBS, 0.05% Tween 20, 0.5 μM non-biotinylated affinity ligand) and incubated at room temperature with shaking for 30 minutes. The kinase concentration in the eluates was measured by qPCR.
An 11-point 3-fold serial dilution of each test compound was prepared in 100% DMSO at 100× final test concentration and subsequently diluted to 1× in the assay (final DMSO concentration=1%). Most Kds were determined using a compound top concentration=30,000 nM. If the initial Kd determined was <0.5 nM (the lowest concentration tested), the measurement was repeated with a serial dilution starting at a lower top concentration.
With `Cc1cccc(/C=N/Nc2nc(N3CCOCC3)c3sc(-c4ccccc4)cc3n2)c1` [Example 1, 4-morpholino-N-[(E)-m-tolylmethyleneamino]-6-phenyl-thieno[3,2-d]pyrimidin-2-amine] the pKd was 8.00 to 9.00.
Compound `Cc1cccc(/C=N/Nc2nc(N3CCOCC3)c3sc(-c4ccncc4)cc3n2)c1` [Example 2, 4-morpholino-N-[(E)-m-tolylmethyleneamino]-6-(4-pyridyl)thieno[3,2-d]pyrimidin-2-amine] has a pKd of no less than 9.00.
Compound `Cc1cccc(/C=N/Nc2nc(N3CCOCC3)c3sccc3n2)c1` [Example 3, 4-morpholino-N-[(E)-m-tolylmethyleneamino]thieno[3,2-d]pyrimidin-2-amine] has a pKd of 8.00 to 9.00.
Compound `Cc1cccc(/C=N/Nc2nc(N3CCOCC3)c3sc(C(=O)Nc4cccnc4)cc3n2)c1` [Example 4, 4-morpholino-2-[(2E)-2-(m-tolylmethylene)hydrazino]-N-(3-pyridyl)thieno[3,2-d]pyrimidine-6-carboxamide] has a pKd of no less than 9.00.
Work on `Cc1cccc(/C=N/Nc2nc(N3CCOCC3)c3sc(C(=O)Nc4ccncc4)cc3n2)c1` [Example 5, 4-morpholino-2-[(2E)-2-(m-tolylmethylene)hydrazino]-N-(4-pyridyl)thieno[3,2-d]pyrimidine-6-carboxamide] yielded a pKd of 8.00 to 9.00.
`Cc1cccc(/C=N/Nc2nc(N3CCOCC3)c3sc(C(=O)NC4COC4)cc3n2)c1` [Example 7, 4-morpholino-2-[(2E)-2-(m-tolylmethylene)hydrazino]-N-(oxetan-3-yl)thieno[3,2-d]pyrimidine-6-carboxamide] showed a pKd of no less than 9.00.
In the case of `Cc1cccc(/C=N/Nc2nc(N3CCOCC3)c3sc(-c4cnco4)cc3n2)c1` [Example 9, 4-Morpholino-N-[(E)-m-tolylmethyleneamino]-6-oxazol-5-yl-thieno[3,2-d]pyrimidin-2-amine], the pKd was 8.00 to 9.00.
With `Cc1cccc(/C=N/Nc2nc(N3CCOCC3)c3ccsc3n2)c1` [Example 10, 4-morpholino-N-[(E)-m-tolylmethyleneamino]thieno[2,3-d]pyrimidin-2-amine] the pKd was 7.22 to 8.00.
For `Cc1cccc(/C=N/Nc2nc(N3CCOCC3)c3cc(-c4ccncc4)sc3n2)c1` [Example 11, 4-morpholino-N-[(E)-m-tolylmethyleneamino]-6-(4-pyridyl)thieno[2,3-d]pyrimidin-2-amine], the pKd was 8.00 to 9.00.
For `Cc1cccc(/C=N/Nc2nc(N3CCOCC3)c3cc(-c4cnco4)sc3n2)c1` [Example 12, 4-morpholino-N-[(E)-m-tolylmethyleneamino]-6-oxazol-5-yl-thieno[2,3-d]pyrimidin-2-amine], the pKd was no less than 9.00.
Compound `Clc1cccc(/C=N/Nc2nc(N3CCOCC3)c3cc(-c4cnco4)sc3n2)c1` [Example 14, N-[(E)-(3-chlorophenyl)methyleneamino]-4-morpholino-6-oxazol-5-yl-thieno[2,3-d]pyrimidin-2-amine] has a pKd of 7.22 to 8.00.
With `Cc1cccc(/C=N/Nc2nc(N3CCOCC3)c3sc(C(=O)NC4CNC4)cc3n2)c1` [Example 22, N-(azetidin-3-yl)-4-morpholino-2-[(2E)-2-(m-tolylmethylene)hydrazino]thieno[3,2-d]pyrimidine-6-carboxamide] the pKd was 8.00 to 9.00.
`Cc1cccc(CCNc2nc(N3CCOCC3)c3sc(-c4ccncc4)cc3n2)c1` [Example 255, 4-morpholino-N-[2-(m-tolyl)ethyl]-6-(4-pyridyl)thieno[3,2-d]pyrimidin-2-amine] was tested, and the pKd was 7.22 to 8.00.
In the case of `Cc1cccc(/C=N/Nc2nc(N3CCOCC3)c3sc(-c4cccnc4)cc3n2)c1` [Example 261, 4-morpholino-N-[(E)-m-tolylmethyleneamino]-6-(3-pyridyl)thieno[3,2-d]pyrimidin-2-amine], the pKd was no less than 9.00.
With `Cc1cccc(/C=N/Nc2nc(N3CCOCC3)c3sc(-c4cnn(C)c4)cc3n2)c1` [Example 262, 6-(1-methylpyrazol-4-yl)-4-morpholino-N-[(E)-m-tolylmethyleneamino]thieno[3,2-d]pyrimidin-2-amine] the pKd was no less than 9.00.
`Cc1cccc(/C=N/Nc2nc(N3CCOCC3)c3sc(-c4c(C)n[nH]c4C)cc3n2)c1` [Example 263, 6-(3,5-dimethyl-1H-pyrazol-4-yl)-4-morpholino-N-[(E)-m-tolylmethyleneamino]thieno[3,2-d]pyrimidin-2-amine] showed a pKd of no less than 9.00.
With `Cc1cccc(/C=N/Nc2nc(N3CCOCC3)c3sc(-c4c(C)noc4C)cc3n2)c1` [Example 264, 6-(3,5-dimethylisoxazol-4-yl)-4-morpholino-N-[(E)-m-tolylmethyleneamino]thieno[3,2-d]pyrimidin-2-amine] the pKd was no less than 9.00.
Work on `Cc1cccc(/C=N/Nc2nc(N3CCOCC3)c3cc(-c4c(C)noc4C)sc3n2)c1` [Example 267, 6-(3,5-dimethylisoxazol-4-yl)-4-morpholino-N-[(E)-m-tolylmethyleneamino]thieno[2,3-d]pyrimidin-2-amine] yielded a pKd of 8.00 to 9.00.
`Cc1cccc(/C=N/Nc2nc(N3CCOCC3)c3cc(-c4c(C)n[nH]c4C)sc3n2)c1` [Example 268, 6-(3,5-dimethyl-1H-pyrazol-4-yl)-4-morpholino-N-[(E)-m-tolylmethyleneamino]thieno[2,3-d]pyrimidin-2-amine] gave a pKd of 8.00 to 9.00.
